Source: paper PMC3969230, “Structural and functional characterization of NanU, a novel high-affinity sialic acid-inducible binding protein of oral and gut-dwelling Bacteroidetes species” (Biochemical Journal, 2014)
pKd: −log10 of the molar value. Values joined by “and” are separate entries in the source; they are usually repeats but may differ in a detail not shown here. Identical values can stand only once.

Key:
[1] = test system: NanU; experiment: Steady-state tryptophan fluorescence titration, NanU (species not told apart); format: binding; settings: for binding to NanU (in words): tryptophan fluorescence quenching
Method: (§1) Proteins were diluted in 25 mM sodium phosphate buffer, pH 7.4, to a final concentration of 0.5 μM and incubated at 25°C for 5 min before substrate titration. The quenching of intrinsic tryptophan fluorescence was measured at 25°C with constant stirring in a 104F-QS quartz fluorescence semi-micro cell (Hellma Analytics) using a Varian Cary Eclipse spectrofluorometer. The excitation and emission wavelengths were 295 nm (5 nm slit width) and 330 nm (10 nm slit width) respectively. Corrections for background fluorescence changes due to dilution effects with the stepwise addition of ligands were made by buffer titrations. Analysis and curve fitting of titration data were performed in Prism 5 (GraphPad Software), with the equilibrium dissociation constants (Kd) for one site-specific binding calculated using eqn (1): (1) Y=Bmax×X/(Kd+X) where X is the final concentration of ligand, Y is the percentage increase in protein quenching in relation to the protein-only fluorescence signal and Bmax is the extrapolated maximum specific binding.

[2] = test system: BT1043; set-up: method as in PMID 19191477; settings: non-physiological ligand; cited from earlier work
[3] = test system: SusD; set-up: method as in PMID 18611383; settings: non-physiological ligand; cited from earlier work
[4] = molecular target: BF-NanU (BF1720) (Bacteroides fragilis, UniProt Q5LEN2); experiment: Steady-state tryptophan fluorescence titration, BF-NanU; format: binding
Method: as §1

[5] = molecular target: lectin domain of the Vibrio cholerae sialidase; set-up: method as in PMID 15226294; settings: read-out: affinity; cited from earlier work
[6] = molecular target: TF-NanU (TF0034) (Tannerella forsythia, UniProt G8UIQ0); experiment: Steady-state tryptophan fluorescence titration, TF-NanU; settings: 0.5 μM protein, 25 mM sodium phosphate pH 7.4, 25°C, one-site specific binding
Method: as §1

[7] = molecular target: SiaP; set-up: method as in PMID 16702222; settings: cited from earlier work
[8] = 0.5 μM protein, 25 mM sodium phosphate pH 7.4, 25°C, one-site specific binding

Sequence of BF-NanU (BF1720) (Q5LEN2 entry or part of it): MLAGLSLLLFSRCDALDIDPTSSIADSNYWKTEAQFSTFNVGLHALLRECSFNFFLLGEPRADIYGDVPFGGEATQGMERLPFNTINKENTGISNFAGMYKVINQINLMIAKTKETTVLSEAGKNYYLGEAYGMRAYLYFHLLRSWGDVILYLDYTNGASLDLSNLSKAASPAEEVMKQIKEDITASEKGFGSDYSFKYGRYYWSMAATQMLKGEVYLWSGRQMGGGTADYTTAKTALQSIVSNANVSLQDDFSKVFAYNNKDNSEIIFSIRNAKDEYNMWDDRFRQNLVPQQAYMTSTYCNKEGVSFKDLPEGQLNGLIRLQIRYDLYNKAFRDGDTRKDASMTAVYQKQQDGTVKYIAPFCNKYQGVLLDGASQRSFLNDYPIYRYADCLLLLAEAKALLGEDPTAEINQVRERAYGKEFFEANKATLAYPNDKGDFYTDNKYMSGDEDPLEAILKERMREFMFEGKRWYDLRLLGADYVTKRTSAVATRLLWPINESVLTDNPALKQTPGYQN
Sequence of TF-NanU (TF0034) (G8UIQ0 entry or part of it): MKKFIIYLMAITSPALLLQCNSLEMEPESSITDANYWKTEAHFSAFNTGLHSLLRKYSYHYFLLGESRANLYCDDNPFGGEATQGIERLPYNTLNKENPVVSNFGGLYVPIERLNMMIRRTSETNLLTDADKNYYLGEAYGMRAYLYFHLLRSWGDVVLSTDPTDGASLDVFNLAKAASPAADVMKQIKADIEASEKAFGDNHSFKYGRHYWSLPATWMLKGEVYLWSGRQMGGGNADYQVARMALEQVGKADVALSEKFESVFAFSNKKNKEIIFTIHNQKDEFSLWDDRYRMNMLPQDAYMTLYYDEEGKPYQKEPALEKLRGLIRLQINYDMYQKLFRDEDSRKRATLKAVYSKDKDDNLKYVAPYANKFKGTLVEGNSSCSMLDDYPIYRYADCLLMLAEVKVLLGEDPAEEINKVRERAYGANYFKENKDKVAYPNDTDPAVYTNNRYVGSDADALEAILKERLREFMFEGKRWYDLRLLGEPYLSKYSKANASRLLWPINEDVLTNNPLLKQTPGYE

| Compound | binding to NanU (in words) [1] | pKd [4, 8] | pKd [6] | other results |
| --- | --- | --- | --- | --- |
| CCOC(=O)C1=C[C@@H](OC(CC)CC)[C@H](NC(C)=O)[C@@H](N)C1 [Oseltamivir, oseltamivir] | No binding |  |  | binding to NanU (in words) ([1]; listed as oseltamivir): neither |
| CC(=O)N[C@H]1C(O)O[C@H](CO)[C@@H](O[C@@H]2O[C@H](CO)[C@H](O)[C@H](O)[C@H]2O)[C@@H]1O (stereo partly shown) [N-acetyl lactosamine] |  |  |  | binding interaction (range in words) [2]: in the mM range |
| CC(=O)N[C@H]1NC[C@H](C(=O)O)[C@H](O)[C@@H]1O [Siastatin B, siastatin B] | No binding |  |  | binding to NanU (in words) ([1]; listed as siastatin B): neither |
| cyclodextrin |  |  |  | binding interaction (range in words) [3]: in the hundreds of μM range |
| sialyl-lactose | does not bind |  |  |  |
| CC(=O)N[C@H]1[C@H]([C@H](O)[C@H](O)CO)OC(O)(C(=O)O)C[C@@H]1O (stereo partly shown) [Neu5Ac, 5-N-acetylneuraminic acid] |  | 6.40 | 6.37 and 6.40 | pKd ([4]; BF-NanU expressed and purified from cells grown in M9 medium plus glycerol (results not shown)): 6.39; pKd [5]: 4.52; pKd [7]: 6.92; pKd ([1]; NanU from two Bacteroidetes species, approximate summary value): ~6.40 |
| CC(=O)NC1C(O)CC(OC2C(O)C(CO)OC(OC3C(CO)OC(O)C(O)C3O)C2O)(C(=O)O)OC1C(O)C(O)CO (stereo not shown) [3′-siallyl-lactose] | did not display any interaction |  |  |  |
| CC(=O)N[C@H]1[C@H]([C@H](O)[C@H](O)CO)OC(C(=O)O)=C[C@@H]1N=C(N)N [Zanamivir, zanamivir] |  | 6.05 and 6.04 | 5.96 and 5.95 |  |
| CC(=O)N[C@H]1[C@H]([C@H](O)[C@H](O)CO)OC(C(=O)O)=C[C@@H]1O [Neu5Ac2en, 2-deoxy-2,3-didehydro-Neu5Ac] |  | 5.25 and 5.26 | 5.08 |  |
| CC(=O)NC1C(O)CC(OCC2OC(OC3C(CO)OC(O)C(O)C3O)C(O)C(O)C2O)(C(=O)O)OC1C(O)C(O)CO (stereo not shown) [6′-siallyl-lactose] | did not display any interaction |  |  |  |
| O=C(CO)N[C@H]1[C@H]([C@H](O)[C@H](O)CO)O[C@](O)(C(=O)O)C[C@@H]1O [Neu5Gc, N-glycolylneuraminic acid] |  | 5.70 and 5.78 and 5.77 | 5.77 and 5.70 | affinity lower than Neu5Ac (fold) ([1]; Neu5Gc compared with Neu5Ac): 5 fold |
